biological target: T1, P2Y12 receptor (Homo sapiens, UniProt Q9H244); assay: Functional inhibition of 2-Me-S-ADP induced P2Y12 signalling (35S-GTPγS binding, cell membranes); format: biochemical; details: 35S-GTPγS assay, membranes, EC80 concentration of 2-methyl-thio-adenosine diphosphate, 30° C. for 45 min; read-out: GTPγS (IC50 μM)
T1 construct: expressed in transfected cells; host or cells: CHO cells (membrane preparation)
Procedure: Functional inhibition of- the P2Y12 receptor can be measured by in vitro assays using cell membranes from P2Y12 transfected CHO-cells, the methodology is indicated below.
Functional inhibition of 2-Me-S-ADP induced P2Y12 signalling: 5 μg of membranes were diluted in 200 μl of 200 mM NaCl, 1 mM MgCl2, 50 mM HEPES (pH 7.4), 0.01% BSA, 30 μg/ml saponin and 10 μM GDP. To this was added an EC80 concentration of agonist (2-methyl-thio-adenosine diphosphate), the required concentration of test compound and 0.1 μCi ^35S-GTPγS. The reaction was allowed to proceed at 30° C. for 45 min. Samples were then transferred on to GF/B filters using a cell harvester and washed with wash buffer (50 mM Tris (pH 7.4), 5 mM MgCl2, 50 mM NaCl). Filters were then covered with scintilant and counted for the amount of ^35S-GTPγS retained by the filter. Maximum activity was that determined in the presence of the agonist and minimum activity in the absence of the agonist following subtraction of the value determined for non-specific activity. The effect of compounds at various concentrations was plotted according to the equation
y=A+((B−A)/(1+((C/x)̂D)))
and IC50 estimated where A is the bottom plateau of the curve i.e. the final minimum y value B is the top of the plateau of the curve i.e. the final maximum y value C is the x value at the middle of the curve. This represents the log EC50 value when A+B=100 D is the slope factor. x is the original known x values. Y is the original known y values.

T1 sequence (Q9H244 whole entry): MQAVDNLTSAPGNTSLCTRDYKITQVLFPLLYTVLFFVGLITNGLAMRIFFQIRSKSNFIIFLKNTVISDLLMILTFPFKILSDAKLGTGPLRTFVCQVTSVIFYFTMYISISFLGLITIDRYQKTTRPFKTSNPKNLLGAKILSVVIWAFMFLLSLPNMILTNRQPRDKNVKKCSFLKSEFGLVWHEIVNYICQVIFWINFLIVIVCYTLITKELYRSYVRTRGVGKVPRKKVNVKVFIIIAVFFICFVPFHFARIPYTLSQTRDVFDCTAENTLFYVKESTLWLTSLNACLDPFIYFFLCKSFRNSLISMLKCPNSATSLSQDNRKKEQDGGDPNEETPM

SMILES | IC50 [µM]
CCOC(=O)c1ccc(N2CCC(C(=O)NS(=O)(=O)Cc3ccccc3)CC2)nc1CN1CCCC1=O [Example 86, Ethyl 6-{4-[(benzylsulfonyl)carbamoyl]piperidin-1-yl}-2-[(2-oxopyrrolidin-1-yl)methyl]nicotinate] | 0.103
CCOC(=O)c1cc(C#N)c(N2CCC(C(=O)NS(=O)(=O)Cc3ccccc3)CC2)nc1OCCNC(C)=O [Example 20, Ethyl 2-(2-acetamidoethoxy)-6-{4-[(benzylsulfonyl)carbamoyl]piperidin-1-yl}-5-cyanonicotinate] | 0.038
CCOC(=O)c1cc(C#N)c(N2CCC(C(=O)N(C)S(=O)(=O)Cc3ccccc3)CC2)nc1CN1CCCCC1=O [Example 128, Ethyl 6-{4-[(benzylsulfonyl)(methyl)carbamoyl]piperidin-1-yl}-5-cyano-2-[(2-oxopiperidin-1-yl)methyl]nicotinate] | 1.14
CCOC(=O)c1cc(C#N)c(N2CCC(C(=O)NS(=O)(=O)CC3CCCC3)CC2)nc1CN1CCCC1=O [Example 36, Ethyl 5-cyano-6-(4-{[(cyclopentylmethyl)sulfonyl]carbamoyl}piperidin-1-yl)-2-[(2-oxopyrrolidin-1-yl)methyl]nicotinate] | 0.017
CCOC(=O)c1cc(C#N)c(N2CCC(C(=O)NS(=O)(=O)CC3CCC(C)CC3)CC2)nc1CN1CCCC1=O (stereo not shown) [Example 37, Ethyl 5-cyano-6-[4-({[(4-methylcyclohexyl)methyl]sulfonyl}carbamoyl)piperidin-1-yl]-2-[(2-oxopyrrolidin-1-yl)methyl]nicotinate] | 0.03
CCOC(=O)c1cc(F)c(N2CCC(C(=O)NS(=O)(=O)Cc3ccccc3)CC2)nc1CN1CCCC1=O [Example 127, Ethyl 6-{4-[(benzylsulfonyl)carbamoyl]piperidin-1-yl}-5-fluoro-2-[(2-oxopyrrolidin-1-yl)methyl]nicotinate] | 0.079
CCOC(=O)c1cc(C#N)c(N2CCC(C(=O)NS(=O)(=O)Cc3ccccc3)CC2)nc1SCCNC(C)=O [Example 21, Ethyl 2-[(2-acetamidoethyl)thio]-6-{4-[(benzylsulfonyl)carbamoyl]piperidin-1-yl}-5-cyanonicotinate] | 0.01
CCOC(=O)c1cc(C#N)c(N2CCC(C(=O)NS(=O)(=O)N(C)c3ccc(F)cc3)CC2)nc1CN1CCCC1=O [Example 76, Ethyl 5-cyano-6-[4-({[(4-fluorophenyl)(methyl)amino]sulfonyl}carbamoyl)piperidin-1-yl]-2-[(2-oxopyrrolidin-1-yl)methyl]nicotinate] | 0.0073
CCOC(=O)c1cc(C#N)c(N2CCC(C(=O)NS(=O)(=O)Cc3ccccc3)CC2)nc1OCC(=O)NC [Example 25, Ethyl 6-{4-[(benzylsulfonyl)carbamoyl]piperidin-1-yl}-5-cyano-2-[2-(methylamino)-2-oxoethoxy]nicotinate] | 0.075
CCOC(=O)c1cc(C#N)c(N2CCC(C(=O)NS(=O)(=O)Cc3ccc([Si](C)(C)C)cc3)CC2)nc1CN1CCCCC1=O [Example 102, Ethyl 5-cyano-2-[(2-oxopiperidin-1-yl)methyl]-6-[4-({[4-(trimethylsilyl)benzyl]sulfonyl}carbamoyl)piperidin-1-yl]nicotinate] | 0.934
CCCOC(=O)c1cc(F)c(N2CCC(C(=O)NS(=O)(=O)Cc3ccccc3)CC2)nc1CN1CCCC1=O [Example 130, Propyl 6-{4-[(benzylsulfonyl)carbamoyl]piperidin-1-yl}-5-fluoro-2-[(2-oxopyrrolidin-1-yl)methyl]nicotinate] | 0.122
CCOC(=O)c1cc(C#N)c(N2CCC(C(=O)NS(=O)(=O)Cc3ccc(OC)cc3)CC2)nc1CN1CCCCC1=O [Example 68, Ethyl 5-cyano-6-(4-{[(4-methoxybenzyl)sulfonyl]carbamoyl}piperidin-1-yl)-2-[(2-oxopiperidin-1-yl)methyl]nicotinate] | 0.024
CCOC(=O)c1cc(C#N)c(N2CC(C(=O)NS(=O)(=O)Cc3ccccc3)C2)nc1COC(C)=O [Example 7, Ethyl 2-(acetoxymethyl)-6-{3-[(benzylsulfonyl)carbamoyl]azetidin-1-yl}-5-cyanonicotinate] | 0.076
CCOC(=O)c1cc(C#N)c(N2CCC(C(=O)NS(=O)(=O)Cc3ccccc3)CC2)nc1CSc1nccs1 [Example 117, Ethyl 6-{4-[(benzylsulfonyl)carbamoyl]piperidin-1-yl}-5-cyano-2-[(1,3-thiazol-2-ylthio)methyl]nicotinate] | 0.035
CCOC(=O)c1cc(C#N)c(N2CCC(C(=O)NS(=O)(=O)Cc3ccccc3)CC2)nc1CSCCO [Example 28, Ethyl 6-{4-[(benzylsulfonyl)carbamoyl]piperidin-1-yl}-5-cyano-2-{[(2-hydroxyethyl)thio]methyl}nicotinate] | 0.037
CCOC(=O)c1cc(C#N)c(N2CCC(C(=O)NS(=O)(=O)CC3CCCC3)CC2)nc1CN1CCCCC1=O [Example 60, Ethyl 5-cyano-6-(4-{[(cyclopentylmethyl)sulfonyl]carbamoyl}piperidin-1-yl)-2-[(2-oxopiperidin-1-yl)methyl]nicotinate] | 0.111
CC(C)OC(=O)c1cc(C#N)c(N2CCC(C(=O)NS(=O)(=O)Nc3ccc(F)cc3)CC2)nc1CN1CCCC1=O [Example 80, Isopropyl 5-cyano-6-[4-({[(4-fluorophenyl)amino]sulfonyl}carbamoyl)piperidin-1-yl]-2-[(2-oxopyrrolidin-1-yl)methyl]nicotinate] | 0.038

The remaining compounds from weak to strong by IC50, led by results:

IC50 [µM] | SMILES
1.05 | CCOC(=O)c1cc(C#N)c(N2CCC(C(=O)NS(=O)(=O)Cc3ccccc3)CC2)nc1CSCc1nccn1C [Example 116, Ethyl 6-{4-[(benzylsulfonyl)carbamoyl]piperidin-1-yl}-5-cyano-2-({[(1-methyl-1H-imidazol-2-yl)methyl]thio}methyl)nicotinate]
0.497 | CC(C)OC(=O)c1cc(C#N)c(N2CCC(C(=O)NS(=O)(=O)Cc3ccc([Si](C)(C)C)cc3)CC2)nc1CN1CCCC1=O [Example 99, Isopropyl 5-cyano-2-[(2-oxopyrrolidin-1-yl)methyl]-6-[4-({[4-(trimethylsilyl)benzyl]sulfonyl}carbamoyl)piperidin-1-yl]nicotinate]
0.166 | CCOC(=O)c1cc(C#N)c(N2CCC(C(=O)NS(=O)(=O)Cc3ccc(SC(F)(F)F)cc3)CC2)nc1CN1CCCCC1=O [Example 101, Ethyl 5-cyano-2-[(2-oxopiperidin-1-yl)methyl]-6-{4-[({4-[(trifluoromethyl)thio]benzyl}sulfonyl)carbamoyl]piperidin-1-yl}nicotinate]
0.094 | CC(C)OC(=O)c1cc(C#N)c(N2CCC(C(=O)NS(=O)(=O)CC3CCC3)CC2)nc1CN1CCCC1=O [Example 81, Isopropyl 5-cyano-6-(4-{[(cyclobutylmethyl)sulfonyl]carbamoyl}piperidin-1-yl)-2-[(2-oxopyrrolidin-1-yl)methyl]nicotinate]
0.077 | CCOC(=O)c1cc(Cl)c(N2CCC(C(=O)NS(=O)(=O)N(C)c3ccc(F)cc3)CC2)nc1CN1CCCC1=O [Example 92, Ethyl 5-chloro-6-[4-({[(4-fluorophenyl)(methyl)amino]sulfonyl}carbamoyl)piperidin-1-yl]-2-[(2-oxopyrrolidin-1-yl)methyl]nicotinate]
0.066 | CCOC(=O)CCCc1nc(N2CCC(C(=O)NS(=O)(=O)Cc3ccccc3)CC2)c(C#N)cc1C(=O)OCC [Example 106, Ethyl 6-{4-[(benzylsulfonyl)carbamoyl]piperidin-1-yl}-5-cyano-2-(4-ethoxy-4-oxobutyl)nicotinate]
0.065 | CCOC(=O)c1cc(C#N)c(N2CCC(C(=O)NS(=O)(=O)Cc3ccccc3)CC2)nc1OCC(=O)N(C)C [Example 125, Ethyl 6-{4-[(benzylsulfonyl)carbamoyl]piperidin-1-yl}-5-cyano-2-[2-(dimethylamino)-2-oxoethoxy]nicotinate]
0.044 | CCOC(=O)c1cc(C#N)c(N2CC(C(=O)NS(=O)(=O)Cc3ccccc3)C2)nc1COC(=O)CO [Example 14, Ethyl 6-{3-[(benzylsulfonyl)carbamoyl]azetidin-1-yl}-5-cyano-2-[(glycoloyloxy)methyl]nicotinate]
0.025 | CCOC(=O)c1cc(C#N)c(N2CCC(C(=O)NS(=O)(=O)Cc3ccc(F)cc3)CC2)nc1CN1CCCC1=O [Example 40, Ethyl 5-cyano-6-(4-{[(4-fluorobenzyl)sulfonyl]carbamoyl}piperidin-1-yl)-2-[(2-oxopyrrolidin-1-yl)methyl]nicotinate]
0.021 | CC(C)OC(=O)c1cc(C#N)c(N2CCC(C(=O)NS(=O)(=O)N(C)c3ccccc3)CC2)nc1CN1CCCC1=O [Example 78, Isopropyl 5-cyano-6-[4-({[methyl(phenyl)amino]sulfonyl}carbamoyl)piperidin-1-yl]-2-[(2-oxopyrrolidin-1-yl)methyl]nicotinate]
0.0075 | CCOC(=O)c1cc(C#N)c(N2CCC(C(=O)NS(=O)(=O)Cc3ccc(OC)cc3)CC2)nc1CN1CCCC1=O [Example 75, Ethyl 5-cyano-6-(4-{[(4-methoxybenzyl)sulfonyl]carbamoyl}piperidin-1-yl)-2-[(2-oxopyrrolidin-1-yl)methyl]nicotinate]
